Source: patent US7314858B2, “Retrocyclins: antiviral and antimicrobial peptides” (priority 2001, dated 2008)
Entries after “also recorded” stand apart in the source; their conditions may differ. Where two headings read alike, the source gives them in different places. Where a SMILES comes first, the peptide text is derived from it. Bridges are numbered along the chain shown (N, C = ends).

Assays:
HSV-2 = assay: HSV inactivation microplate assay on ME-180 cells (MTT); type: cell-based; conditions: 2-50 μg/ml, 2 hrs with virus, 72 hrs culture
Protocol: (§1) FIG. 14. Inactivation of HSV-1 and HSV-2 by retrocyclin and RC-101. Retrocyclin (left panel) and RC-101 (right panel) at the indicated concentrations were incubated with herpes simplex virus, type 1 (HSV-1) or HSV-2 for 2 hrs and then added to ME-180 cell monolayers. Cells were incubated at 37° C. for 72 hrs, and cytotoxicity was measured with an MTT kit.
(§2) Some retrocyclins are slightly active against herpes simplex virus (HSV). To determine if the activity of retrocyclin against HIV-1 was specific or representative of a more global antiviral effect, it was tested its ability to prevent HSV infection in vitro. A quantitative microplate assay was used to screen retrocyclin and retrocyclin-congeners for their ability to inactivate HSV type 1 (HSV-1) and HSV-2. The assay utilized small amounts of peptide and simultaneously evaluated for peptide-induced cytotoxicity. In brief, final peptide concentrations of 2-50 μg/ml were incubated with virus stocks for 2 hrs and added directly to ME-180 human cervical carcinoma cells. Cultures were incubated at 37° C. for 72 hrs and cytotoxicity was measured using a 3-(4,5-dimethylthiazon-2-yl)-2,5-diphenyltetrazolium bromide (MTT) cell proliferation kit (Boehringer-Mannheim, Germany). Calculations to assess antiviral activity and compute “percent protection” are delineated in (90).

gp120 (BaL) = assay: Surface plasmon resonance binding; design: species or system HIV-1; conditions: immobilized gp120(BaL)
Source text: Surface plasmon resonance. Recombinant human soluble CD4 (full-length 45 kDa glycosylated ectodomain) was produced by ExpresSF+S. frugiperda cells in serum-free medium (Protein Sciences Corporation, Meriden, Conn.). Glycosylated HIV-1 gp120 (LAV) envelope glycoprotein (Catalog No. 2003-LAV) was purchased from the same source. Recombinant HIV-1BaL was obtained through the AIDS Research and Reference Reagent Program, Division of AIDS, National Institute of Allergy and Infectious Disease, NIH.
Surface plasmon resonance (SPR) experiments were done with a Biacore 2000 system (Biacore, Inc., Piscataway, N.J.). The running buffer (pH 7.4) contained 10 mM HEPES, 150 mM NaCl, 3 mM EDTA and 0.005% polysorbate 20. The immobilized proteins (gp120-LAV and CD4) were dissolved at 20 μg/ml in 10 mM sodium acetate, pH 5.0 and immobilized on a Biacore CM5 sensor chip using the amine coupling method. The chip was activated by mixing 400 mM EDC (N-ethyl-N-(3-dimethylaminopropyl)-carbodiimide hydrochloride) and 100 mM N-hydroxysuccinimide. […] Residual reactive groups on the chip surface were blocked using 1.0 Methanolamine/HCl, pH 8.5.
The flow cell chip used as a control lacked immobilized protein but was otherwise treated as above. Signals were corrected for nonspecific binding by subtracting the control signal. To regenerate the chip surface, bound ligands were removed with 10 mM HCl. Data were analyzed with BIAevaluation 3.1 software. Curve fitting was done with an assumption of 1:1 binding.
In those experiments, biosensor chips containing immobilized gp120 or CD4 were perfused with a 1 μg/ml solution of the peptides, and binding was measured by surface plasmon resonance. […] No binding studies were performed with gp120 preparations derived from non-B HIV-1 subtypes.

CD4+ PBMC = conditions: for average number of cells: 20 μg/ml peptide, CD4+ PBMC; for cytotoxicity (trypan blue exclusion): 20 μg/ml, HIV-1-infected CD4+ PBMC
HSV-1 = assay: HSV inactivation microplate assay on ME-180 cells (MTT); type: cell-based, herpes simplex virus, type 1; conditions: 2-50 μg/ml, 2 hrs with virus, 72 hrs culture
Protocol: as §1, §2

HIV-1 strain IIIB = assay: HIV-1 IIIB infection of CD4+ PBMC, p24 antigen ELISA; type: cell-based; conditions: for inhibition of HIV-1 replication (p24): CD4+ PBMC, IIIB (X4), peptide 10-20 μg/ml
Protocol: FIG. 5A-C. Anti-HIV-1 activity of retrocyclin. Two strains of HIV-1 and two types of human target cells were used. The IIIB strain is T-cell tropic (X4) and utilizes the CXCR4 co-receptor for entry; the JR-CSF strain is M-tropic (R5) and uses CCR5 for entry. PBMC signifies CD4^+-selected peripheral blood mononuclear cells. […] (A) Two concentrations of retrocyclin (2 μg/ml, 20 μg/ml), 20 μg/ml of the Rhesus circular defensin “RTD-1”, and 20 μg/ml of a horseshoe crab-derived peptide “T140”, reported to only prevent X4 infections, were tested in antiviral assays of against strain IIIB in H9 cells (n=2-6 per peptide; error bars indicate SEM). (B) To confirm our results with primary human cells, similar assays were performed utilizing IIIB virus and CD4^+ PBMC or (C) JR-CSF virus and CD4^+ PBMC. […] Average of duplicate experiments are reported for studies with PBMCs. Assay sensitivity=10 pg/ml.
Either HIV-1-permissive H9 cells were used as targets, or primary CD4^+ lymphocytes from HIV-1-seronegative donors generated from freshly purified peripheral blood mononuclear cells (PBMC) stimulated with a CD3-CD8 bispecific monoclonal antibody. […] These cells were maintained in RPMI containing 10% FCS supplemented with 2 mM glutamine, 100 U of penicillin/ml, 10 μg of streptomycin/ml, and 50 U of interleukin 2/ml (R10-50 media).
Examining the effect of adding retrocyclin at various times pre- and post-HIV-1 infection. […] Primary CD4^+ PBMC were incubated with HIV-IIIB (FIG. 6) or HIV-JR-CSF for 3 hours in the presence or absence of 20 μg/ml retrocyclin. The cells were subsequently washed in media, and incubated an additional 9 days. Retrocyclin (20 μg/ml) was added back to some of the cultures at time points specified in FIG. 6 and infection was monitored by p24 ELISA as previously described. […]

human red blood cells = assay: Hemagglutination of washed red blood cells in PBS; conditions: washed human red blood cells in PBS
Protocol: Hemagglutination was tested by adding the stated concentration of peptide to a well comprising red blood cells (shown in FIG. 22). When the RBC are agglutinated, they clump together and settle rapidly and form a diffuse circle covering much of the bottom of the well. In the absence of agglutination, they settle more slowly and form a compact red button in the center of the well.
Sequences of retrocyclin-related peptides that were synthesized and either tested for activity against HIV-1 (see FIGS. 21A and 21B) and/or for their ability to cause human red blood cells to hemagglutinate or both. NT signifies not tested. Linear sequences appear in the table, but all peptides were cyclic and contained three intramolecular disulfide bonds. Hemagglutination of washed human red blood cells was tested in PBS, at peptide concentrations of 50, 25, 12.5 6.25 and 3.12 μg/ml. The lowest concentrations that caused hemagglutination are shown. Peptide concentrations were determined by amino acid analysis or by AUC (area under the curve) RP-HPLC analysis with reference to amino-acid analyzed standards.

Compound | protection against HSV-2 (HSV-2) | Kd (gp120 (BaL)) | koff (gp120 (BaL)) | kon (gp120 (BaL)) | average number of cells (CD4+ PBMC; IIIB) | average number of cells (CD4+ PBMC; JR-CSF) | average number of cells (CD4+ PBMC; no virus) | cytotoxicity (trypan blue exclusion) (CD4+ PBMC) | protection against HSV-1 (HSV-1) | reduction of p24 concentration (HIV-1 strain IIIB; 20 μg/ml added 24 hours after initial infection) | inhibition of HIV-1 replication (p24) (HIV-1 strain IIIB) | Hemagglutination seen at a concentration of (lowest concentration that caused hemagglutination) (human red blood cells) | hemagglutination compared with retrocyclin (human red blood cells)
CC[C@H](C)[C@@H]1NC(=O)CNC(=O)[C@H](CCCNC(=N)N)NC(=O)CNC(=O)[C@@H]2CSSC[C@H](NC1=O)C(=O)N[C@@H](CCCNC(=N)N)C(=O)N[C@H]1CSSC[C@H](NC(=O)[C@H](CCCNC(=N)N)NC(=O)[C@@H]3CSSC[C@H](NC(=O)[C@H]([C@@H](C)CC)NC1=O)C(=O)NCC(=O)N[C@@H](CCCNC(=N)N)C(=O)NCC(=O)N[C@@H]([C@@H](C)CC)C(=O)N3)C(=O)N[C@@H]([C@@H](C)CC)C(=O)N2 [RC-100, Retrocyclin] (cyclo(GICRCICGRGICRCICGR); disulfide 3-16, 5-14, 7-12) | modest protection | 29.2 nM | 4.12 × 10^−3 | 14.1 × 10^4 | 1.68e+06 mL⁻¹ | 1.58e+06 mL⁻¹ | 980000 mL⁻¹ | neither 20 μg/ml retrocyclin nor RC-101 were cytotoxic | not HSV-1 | ~1000 fold | complete suppression; also recorded: uniformly protective | 6 to 12.5 µg/mL | –
CC[C@H](C)[C@@H]1NC(=O)CNC(=O)[C@H](CCCCN)NC(=O)CNC(=O)[C@@H]2CSSC[C@H](NC1=O)C(=O)N[C@@H](CCCNC(=N)N)C(=O)N[C@H]1CSSC[C@H](NC(=O)[C@H](CCCNC(=N)N)NC(=O)[C@@H]3CSSC[C@H](NC(=O)[C@H]([C@@H](C)CC)NC1=O)C(=O)NCC(=O)N[C@@H](CCCNC(=N)N)C(=O)NCC(=O)N[C@@H]([C@@H](C)CC)C(=O)N3)C(=O)N[C@@H]([C@@H](C)CC)C(=O)N2 [RC-101, R9K-Retrocyclin] | nearly completely protective | 20.5 nM | 5.55 × 10^−3 | 27.0 × 10^4 | – | – | – | neither 20 μg/ml retrocyclin nor RC-101 were cytotoxic | modestly protective | – | as active as retrocyclin | > 200 µg/mL | much less hemagglutination than retrocyclin; also recorded: less hemagglutination than retrocyclin-1 or retrocyclin-2
